Values joined by “and” are separate entries in the source; they are usually repeats but may differ in a detail not shown here. Equal entries are not always repeated.
Columns and labels:
Assay in all cases: Kinase inhibitor specificity profiling (Reaction Biology Corporation)
Format in all cases: biochemical
Parameters in all cases: % Enzyme Activity (relative to DMSO controls): concentration or dose not given beside the values
[1] = target: T1, panel of 370 protein kinases (Homo sapiens, UniProt P48730); conditions: 2 h, kinase CK1d; read-out: % Enzyme Activity (relative to DMSO controls)
T1 construct: purchased Reaction Biology Corporation (assay service)

[2] = target: T2, panel of 370 protein kinases (Homo sapiens, UniProt Q86Z02); conditions: 2 h, kinase HIPK1; read-out: % Enzyme Activity (relative to DMSO controls)
T2 construct: purchased Reaction Biology Corporation (assay service)

[3] = target: T3, panel of 370 protein kinases (Homo sapiens, UniProt Q86YV6); conditions: 2 h, kinase MYLK4; read-out: % Enzyme Activity (relative to DMSO controls)
T3 construct: purchased Reaction Biology Corporation (assay service)

[4] = target: T4, panel of 370 protein kinases (Homo sapiens, UniProt P45985); conditions: 2 h, kinase MKK4; read-out: % Enzyme Activity (relative to DMSO controls)
T4 construct: purchased Reaction Biology Corporation (assay service)

[5] = target: T5, panel of 370 protein kinases (Homo sapiens, UniProt Q9P0L2); conditions: 2 h, kinase MARK1; read-out: % Enzyme Activity (relative to DMSO controls)
T5 construct: purchased Reaction Biology Corporation (assay service)

[6] = target: T6, panel of 370 protein kinases (Homo sapiens, UniProt Q32MK0); conditions: 2 h, kinase MYLK3; read-out: % Enzyme Activity (relative to DMSO controls)
T6 construct: purchased Reaction Biology Corporation (assay service)

[7] = target: T7, panel of 370 protein kinases (Homo sapiens, UniProt P29376); conditions: 2 h, kinase TYK1/LTK; read-out: % Enzyme Activity (relative to DMSO controls)
T7 construct: purchased Reaction Biology Corporation (assay service)

[8] = target: T8, panel of 370 protein kinases (Homo sapiens, UniProt Q05513); conditions: 2 h, kinase PKCzeta; read-out: % Enzyme Activity (relative to DMSO controls)
T8 construct: purchased Reaction Biology Corporation (assay service)

[9] = target: T9, panel of 370 protein kinases (Homo sapiens, UniProt Q96SB4); conditions: 2 h, kinase SRPK1; read-out: % Enzyme Activity (relative to DMSO controls)
T9 construct: purchased Reaction Biology Corporation (assay service)

[10] = target: T10, panel of 370 protein kinases (Homo sapiens, UniProt Q8NE63); conditions: 2 h, kinase HIPK4; read-out: % Enzyme Activity (relative to DMSO controls)
T10 construct: purchased Reaction Biology Corporation (assay service)

[11] = target: T11, panel of 370 protein kinases (Homo sapiens, UniProt Q02750); conditions: 2 h, kinase MEK1; read-out: % Enzyme Activity (relative to DMSO controls)
T11 construct: purchased Reaction Biology Corporation (assay service)

[12] = target: T12, panel of 370 protein kinases (Homo sapiens, UniProt O96017); conditions: 2 h, kinase CHK2; read-out: % Enzyme Activity (relative to DMSO controls)
T12 construct: purchased Reaction Biology Corporation (assay service)

[13] = target: T13, panel of 370 protein kinases (Homo sapiens, UniProt P17612); conditions: 2 h, kinase PKA; read-out: % Enzyme Activity (relative to DMSO controls)
T13 construct: purchased Reaction Biology Corporation (assay service)

[14] = target: T14, panel of 370 protein kinases (Homo sapiens, UniProt Q86UE8); conditions: 2 h, kinase TLK2; read-out: % Enzyme Activity (relative to DMSO controls)
T14 construct: purchased Reaction Biology Corporation (assay service)

[15] = target: T15, panel of 370 protein kinases (Homo sapiens, UniProt P78362); conditions: 2 h, kinase SRPK2; read-out: % Enzyme Activity (relative to DMSO controls)
T15 construct: purchased Reaction Biology Corporation (assay service)

[16] = target: T16, panel of 370 protein kinases (Homo sapiens, UniProt Q8N752); conditions: 2 h, kinase CK1a1L; read-out: % Enzyme Activity (relative to DMSO controls)
T16 construct: purchased Reaction Biology Corporation (assay service)

[17] = target: T17, panel of 370 protein kinases (Homo sapiens, UniProt O15111); conditions: 2 h, kinase IKKa/CHUK; read-out: % Enzyme Activity (relative to DMSO controls)
T17 construct: purchased Reaction Biology Corporation (assay service)

[18] = target: T18, panel of 370 protein kinases (Homo sapiens, UniProt O00141); conditions: 2 h, kinase SGK1; read-out: % Enzyme Activity (relative to DMSO controls)
T18 construct: purchased Reaction Biology Corporation (assay service)

[19] = target: T19, panel of 370 protein kinases (Homo sapiens, UniProt Q9H422); conditions: 2 h, kinase HIPK3; read-out: % Enzyme Activity (relative to DMSO controls)
T19 construct: purchased Reaction Biology Corporation (assay service)

[20] = target: T20, panel of 370 protein kinases (Homo sapiens, UniProt Q6PHR2); conditions: kinase ULK3
T20 construct: purchased Reaction Biology Corporation (assay service)

[21] = tested on: panel of 370 protein kinases

T20 sequence (Q6PHR2 whole entry): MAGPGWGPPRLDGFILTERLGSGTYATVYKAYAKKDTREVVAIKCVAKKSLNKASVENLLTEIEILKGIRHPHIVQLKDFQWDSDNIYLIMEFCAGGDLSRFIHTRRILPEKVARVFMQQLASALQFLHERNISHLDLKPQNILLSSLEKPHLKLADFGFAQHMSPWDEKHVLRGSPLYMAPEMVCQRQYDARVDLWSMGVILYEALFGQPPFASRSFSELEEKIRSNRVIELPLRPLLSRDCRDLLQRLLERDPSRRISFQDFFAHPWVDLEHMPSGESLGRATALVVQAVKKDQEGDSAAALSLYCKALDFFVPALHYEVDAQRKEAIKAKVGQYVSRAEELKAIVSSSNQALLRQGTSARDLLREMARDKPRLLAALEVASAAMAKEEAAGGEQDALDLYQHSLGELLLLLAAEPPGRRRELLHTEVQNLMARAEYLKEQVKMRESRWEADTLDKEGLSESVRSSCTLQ
T14 sequence (Q86UE8 whole entry): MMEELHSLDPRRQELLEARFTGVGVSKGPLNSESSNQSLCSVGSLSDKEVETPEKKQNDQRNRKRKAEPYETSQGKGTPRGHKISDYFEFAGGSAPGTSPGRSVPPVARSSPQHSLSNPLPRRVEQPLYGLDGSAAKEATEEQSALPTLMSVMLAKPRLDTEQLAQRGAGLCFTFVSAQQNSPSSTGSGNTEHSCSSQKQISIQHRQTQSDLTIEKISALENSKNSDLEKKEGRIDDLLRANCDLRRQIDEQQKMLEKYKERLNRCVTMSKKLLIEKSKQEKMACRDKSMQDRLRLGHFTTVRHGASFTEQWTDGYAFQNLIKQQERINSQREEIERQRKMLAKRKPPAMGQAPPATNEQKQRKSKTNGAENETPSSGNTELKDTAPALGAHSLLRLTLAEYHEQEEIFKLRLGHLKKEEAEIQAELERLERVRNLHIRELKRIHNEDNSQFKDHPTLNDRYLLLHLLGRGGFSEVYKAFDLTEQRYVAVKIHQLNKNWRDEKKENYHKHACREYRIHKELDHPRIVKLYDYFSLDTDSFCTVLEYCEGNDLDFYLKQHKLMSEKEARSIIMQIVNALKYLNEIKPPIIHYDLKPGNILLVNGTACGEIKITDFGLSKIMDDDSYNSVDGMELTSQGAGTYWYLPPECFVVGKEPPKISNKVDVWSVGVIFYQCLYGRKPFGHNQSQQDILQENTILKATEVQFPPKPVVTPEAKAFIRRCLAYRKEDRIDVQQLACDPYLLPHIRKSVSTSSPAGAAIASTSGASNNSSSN
T4 sequence (P45985 whole entry): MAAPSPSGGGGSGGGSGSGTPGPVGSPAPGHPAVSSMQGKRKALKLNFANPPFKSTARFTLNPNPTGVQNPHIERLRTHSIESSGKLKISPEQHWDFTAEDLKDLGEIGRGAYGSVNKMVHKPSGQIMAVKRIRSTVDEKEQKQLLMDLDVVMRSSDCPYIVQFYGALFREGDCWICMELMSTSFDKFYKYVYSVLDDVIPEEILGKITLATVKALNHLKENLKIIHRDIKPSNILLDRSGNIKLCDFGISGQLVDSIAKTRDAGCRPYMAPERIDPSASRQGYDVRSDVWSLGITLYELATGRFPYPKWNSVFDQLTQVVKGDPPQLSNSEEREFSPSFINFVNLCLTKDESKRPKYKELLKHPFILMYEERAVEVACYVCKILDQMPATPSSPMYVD
T9 sequence (Q96SB4 whole entry): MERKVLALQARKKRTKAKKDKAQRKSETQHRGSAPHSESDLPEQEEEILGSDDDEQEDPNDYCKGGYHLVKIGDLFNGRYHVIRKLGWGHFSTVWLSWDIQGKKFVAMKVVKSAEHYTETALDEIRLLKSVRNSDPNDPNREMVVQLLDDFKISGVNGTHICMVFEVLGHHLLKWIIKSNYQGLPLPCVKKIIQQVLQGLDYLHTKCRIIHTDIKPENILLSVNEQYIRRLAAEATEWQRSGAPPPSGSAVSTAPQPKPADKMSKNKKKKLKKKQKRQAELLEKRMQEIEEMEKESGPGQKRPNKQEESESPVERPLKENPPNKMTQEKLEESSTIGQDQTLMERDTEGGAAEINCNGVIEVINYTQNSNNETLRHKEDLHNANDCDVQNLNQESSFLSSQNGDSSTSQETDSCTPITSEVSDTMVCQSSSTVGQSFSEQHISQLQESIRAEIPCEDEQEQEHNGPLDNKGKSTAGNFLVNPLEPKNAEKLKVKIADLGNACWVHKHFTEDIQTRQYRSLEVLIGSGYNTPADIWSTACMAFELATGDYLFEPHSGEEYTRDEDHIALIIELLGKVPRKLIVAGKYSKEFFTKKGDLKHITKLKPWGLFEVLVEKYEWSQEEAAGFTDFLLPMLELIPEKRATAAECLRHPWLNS
T1 sequence (P48730 whole entry): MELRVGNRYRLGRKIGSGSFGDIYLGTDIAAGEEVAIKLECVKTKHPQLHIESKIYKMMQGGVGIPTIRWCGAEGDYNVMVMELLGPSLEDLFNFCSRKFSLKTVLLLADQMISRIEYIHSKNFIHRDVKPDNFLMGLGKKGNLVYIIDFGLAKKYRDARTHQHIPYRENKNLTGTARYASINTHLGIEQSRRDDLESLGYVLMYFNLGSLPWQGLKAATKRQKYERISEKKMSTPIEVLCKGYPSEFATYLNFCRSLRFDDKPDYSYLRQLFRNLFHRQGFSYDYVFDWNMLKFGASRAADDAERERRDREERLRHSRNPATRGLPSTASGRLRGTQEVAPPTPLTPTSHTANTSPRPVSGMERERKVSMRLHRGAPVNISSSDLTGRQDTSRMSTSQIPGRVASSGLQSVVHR
T5 sequence (Q9P0L2 whole entry): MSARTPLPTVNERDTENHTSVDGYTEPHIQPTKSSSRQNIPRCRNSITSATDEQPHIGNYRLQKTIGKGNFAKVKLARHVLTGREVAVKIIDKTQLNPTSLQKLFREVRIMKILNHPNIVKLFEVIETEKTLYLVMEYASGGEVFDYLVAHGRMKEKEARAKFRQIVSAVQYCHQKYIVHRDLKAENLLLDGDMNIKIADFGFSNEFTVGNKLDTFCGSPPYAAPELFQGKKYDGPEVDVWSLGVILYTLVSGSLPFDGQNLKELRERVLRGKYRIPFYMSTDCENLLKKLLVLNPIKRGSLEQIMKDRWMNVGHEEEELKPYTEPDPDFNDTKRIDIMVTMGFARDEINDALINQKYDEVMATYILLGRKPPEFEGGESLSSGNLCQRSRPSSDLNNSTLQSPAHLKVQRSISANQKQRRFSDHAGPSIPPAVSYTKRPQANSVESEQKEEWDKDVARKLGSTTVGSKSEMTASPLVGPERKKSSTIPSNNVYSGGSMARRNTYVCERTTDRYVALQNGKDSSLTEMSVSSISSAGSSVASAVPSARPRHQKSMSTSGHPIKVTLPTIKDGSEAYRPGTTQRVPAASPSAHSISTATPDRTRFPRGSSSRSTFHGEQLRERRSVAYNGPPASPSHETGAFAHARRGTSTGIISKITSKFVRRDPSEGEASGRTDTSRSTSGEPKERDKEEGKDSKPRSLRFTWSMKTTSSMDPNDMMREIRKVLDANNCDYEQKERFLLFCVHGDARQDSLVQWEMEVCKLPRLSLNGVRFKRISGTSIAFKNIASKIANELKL
T3 sequence (Q86YV6 whole entry): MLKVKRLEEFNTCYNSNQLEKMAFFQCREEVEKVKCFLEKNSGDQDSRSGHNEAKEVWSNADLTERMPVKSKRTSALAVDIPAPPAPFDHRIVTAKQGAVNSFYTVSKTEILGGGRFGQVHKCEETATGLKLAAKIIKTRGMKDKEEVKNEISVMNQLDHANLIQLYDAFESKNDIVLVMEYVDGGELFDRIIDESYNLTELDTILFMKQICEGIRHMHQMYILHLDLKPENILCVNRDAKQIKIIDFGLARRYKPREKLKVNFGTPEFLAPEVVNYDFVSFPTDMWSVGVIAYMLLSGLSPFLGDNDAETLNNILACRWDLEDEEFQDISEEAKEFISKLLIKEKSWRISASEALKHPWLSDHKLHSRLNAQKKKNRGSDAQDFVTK
T15 sequence (P78362 whole entry): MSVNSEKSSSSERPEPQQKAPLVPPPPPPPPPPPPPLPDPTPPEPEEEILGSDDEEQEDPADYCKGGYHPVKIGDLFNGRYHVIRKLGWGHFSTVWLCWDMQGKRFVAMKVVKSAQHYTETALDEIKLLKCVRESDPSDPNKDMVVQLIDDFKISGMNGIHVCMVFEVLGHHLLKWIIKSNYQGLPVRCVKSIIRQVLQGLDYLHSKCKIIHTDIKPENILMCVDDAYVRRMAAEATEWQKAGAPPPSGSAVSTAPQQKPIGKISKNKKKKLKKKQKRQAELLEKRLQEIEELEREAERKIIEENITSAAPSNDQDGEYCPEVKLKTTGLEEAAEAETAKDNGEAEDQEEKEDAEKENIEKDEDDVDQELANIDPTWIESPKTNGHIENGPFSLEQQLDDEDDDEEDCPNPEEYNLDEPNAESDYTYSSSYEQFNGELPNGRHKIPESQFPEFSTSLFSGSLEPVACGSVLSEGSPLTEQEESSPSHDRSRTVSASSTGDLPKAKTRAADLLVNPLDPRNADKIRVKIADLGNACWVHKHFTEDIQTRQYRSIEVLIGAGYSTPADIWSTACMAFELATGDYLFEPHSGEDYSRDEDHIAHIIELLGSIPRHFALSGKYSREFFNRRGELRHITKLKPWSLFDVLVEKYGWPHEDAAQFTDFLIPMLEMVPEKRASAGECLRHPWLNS
T16 sequence (Q8N752 whole entry): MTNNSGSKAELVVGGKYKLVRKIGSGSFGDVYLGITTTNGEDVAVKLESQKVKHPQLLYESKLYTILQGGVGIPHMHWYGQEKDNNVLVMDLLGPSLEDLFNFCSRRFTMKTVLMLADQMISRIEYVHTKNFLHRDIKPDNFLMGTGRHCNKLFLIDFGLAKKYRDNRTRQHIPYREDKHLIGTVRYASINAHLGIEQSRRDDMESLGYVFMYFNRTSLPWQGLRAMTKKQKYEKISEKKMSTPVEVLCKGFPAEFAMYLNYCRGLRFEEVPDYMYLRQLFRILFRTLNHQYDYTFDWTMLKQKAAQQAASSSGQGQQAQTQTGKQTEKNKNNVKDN

Work on `CCN1CCN(C(=O)c2ccc(Nc3ncc(F)c(-c4ccc5nc(N(C)C)sc5c4)n3)nc2)CC1` [YK-2-69] yielded a remaining activity at 1 µM [1] of 104%, a remaining activity at 1 µM [2] of 106% and a remaining activity at 1 µM [3] of 44.6%. It also gave a remaining activity at 1 µM [4] of 87.2%, a remaining activity at 1 µM [5] of 88% and a remaining activity at 1 µM [6] of 85.9%. The remaining activity at 1 µM [7] was 109%, the remaining activity at 1 µM [8] was 83.8% and the remaining activity at 1 µM [9] was 91.8%. The remaining activity at 1 µM [10] was 56.5%, the remaining activity at 1 µM [11] was 100% and the remaining activity at 1 µM [12] was 97.6%. The remaining activity at 1 µM [13] was 98.7%, the remaining activity at 1 µM [14] was 91.4% and the remaining activity at 1 µM [15] was 89.3%. It also gave a remaining activity at 1 µM [16] of 103%, a remaining activity at 1 µM [17] of 77.1% and a remaining activity at 1 µM [18] of 60.9%. The remaining activity at 1 µM [19] was 49.6%, the “% Enzyme Activity (relative to DMSO controls)” value [20] was 97.12% and 96.24% and the “kinase selectivity against 370 kinases” value ([21]; 1 µM) was “selectivity over 360+ kinases”. For the same compound, the “% Enzyme Activity (relative to DMSO controls)” value ([21]; kinase LYN B) was 102.77% and 100.49%, the “% Enzyme Activity (relative to DMSO controls)” value ([21]; kinase PKCb2) was 92.22% and 91.87% and the “% Enzyme Activity (relative to DMSO controls)” value ([21]; kinase PKG1b) was 114.44% and 107.54%.

From PMC9133015 (Nature Communications, 2022)
